Patent publication US11229633B2, “Arimoclomol formulation” (Orphazyme A/S, priority 2014, dated 2022)
Several values for one entry are separate records, joined by “and”; a condition that tells them apart may be missing. Equal values may be shown once. Entries after “also recorded” stand apart in the source; their conditions may differ.

How the values were obtained:
human OCT2 = biological target: T1, human OCT2 (Homo sapiens, UniProt O15244); assay: Uptake transporter inhibition assay, OCT2; type: in vitro ADME
T1 construct: expressed in transfected cells; host or cells: CHO (protocol UPT-CHO-OCT2-Metf; control: parental CHO-K1)
T1 sequence (O15244 1-555): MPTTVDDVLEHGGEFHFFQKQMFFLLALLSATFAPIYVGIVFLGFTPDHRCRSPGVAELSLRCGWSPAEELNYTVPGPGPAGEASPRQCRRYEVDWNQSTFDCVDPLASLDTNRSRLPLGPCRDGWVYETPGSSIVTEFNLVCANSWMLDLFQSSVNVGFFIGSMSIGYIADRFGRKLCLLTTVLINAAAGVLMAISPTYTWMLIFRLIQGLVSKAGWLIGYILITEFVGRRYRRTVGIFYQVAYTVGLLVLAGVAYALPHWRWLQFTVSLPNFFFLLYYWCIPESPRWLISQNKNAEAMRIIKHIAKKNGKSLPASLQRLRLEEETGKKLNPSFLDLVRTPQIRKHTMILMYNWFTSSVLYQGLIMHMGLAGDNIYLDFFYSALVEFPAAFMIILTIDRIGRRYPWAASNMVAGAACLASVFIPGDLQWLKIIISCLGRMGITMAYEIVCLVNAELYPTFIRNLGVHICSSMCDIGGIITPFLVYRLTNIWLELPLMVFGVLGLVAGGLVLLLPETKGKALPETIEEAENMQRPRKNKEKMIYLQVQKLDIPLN
Procedure: (§1) Uptake experiments were performed using CHO, MDCKII, or HEK293 cells stably expressing the respective uptake transporters.
(§2) Cells were cultured at 37±1° C. in an atmosphere of 95:5 air:CO2 and were plated onto standard 96-well tissue culture plates at the cell number described in table 4.
(§3) Before the experiment, the medium was removed and the cells were washed twice with 100 μl of HK buffer at pH 7.4 (prepared from Sigma chemicals, Sigma-Aldrich, St Louis, Mo.). Uptake experiments were carried out at 37±1° C. in 50 μl of HK buffer (pH 7.4) containing the probe substrate and the TA or vehicle control (water).
(§4) After the experiment, cells were washed twice with ice cold, 100 μl of HK buffer and lysed with 50 μl of 0.1 M NaOH (1 mM CaCl2) in 5% SDS in the case of OATP1B3). Fluo-3 transport (OATP1B3) was determined by measuring fluorescence using 485 nm and 520 nm as the excitation and emission wavelengths, respectively. Radiolabelled probe substrate transport was determined by measuring an aliquot (35 μl) from each well for liquid scintillation counting.
Uptake of the probe substrate in control cells provided background activity values for all data points. […]
The amount of translocated probe substrate was determined for each well in cpm or RFU. Relative activities were calculated from the equation: […]
(§5) In uptake transporter inhibition assays, the IC50 (μM) was calculated, where applicable. […]

[1] = Solubility of test article in water and methanol; type: physicochemical; conditions: 25° C.
[2] = cited from earlier work
OATP1B1 = biological target: T2, OATP1B1 (Homo sapiens, UniProt Q9Y6L6); assay: Uptake transporter inhibition assay, OATP1B1; type: in vitro ADME; set-up: expressed in transfected cells; host or cells: HEK293 (protocol UPT-HEK293-OATP1B1-E217βG; control: mock-transfected HEK293 FT); key to maximum inhibition: NIO: No interaction observed; conditions: for maximum inhibition: 0.3-300 μM
T2 sequence (Q9Y6L6 1-691): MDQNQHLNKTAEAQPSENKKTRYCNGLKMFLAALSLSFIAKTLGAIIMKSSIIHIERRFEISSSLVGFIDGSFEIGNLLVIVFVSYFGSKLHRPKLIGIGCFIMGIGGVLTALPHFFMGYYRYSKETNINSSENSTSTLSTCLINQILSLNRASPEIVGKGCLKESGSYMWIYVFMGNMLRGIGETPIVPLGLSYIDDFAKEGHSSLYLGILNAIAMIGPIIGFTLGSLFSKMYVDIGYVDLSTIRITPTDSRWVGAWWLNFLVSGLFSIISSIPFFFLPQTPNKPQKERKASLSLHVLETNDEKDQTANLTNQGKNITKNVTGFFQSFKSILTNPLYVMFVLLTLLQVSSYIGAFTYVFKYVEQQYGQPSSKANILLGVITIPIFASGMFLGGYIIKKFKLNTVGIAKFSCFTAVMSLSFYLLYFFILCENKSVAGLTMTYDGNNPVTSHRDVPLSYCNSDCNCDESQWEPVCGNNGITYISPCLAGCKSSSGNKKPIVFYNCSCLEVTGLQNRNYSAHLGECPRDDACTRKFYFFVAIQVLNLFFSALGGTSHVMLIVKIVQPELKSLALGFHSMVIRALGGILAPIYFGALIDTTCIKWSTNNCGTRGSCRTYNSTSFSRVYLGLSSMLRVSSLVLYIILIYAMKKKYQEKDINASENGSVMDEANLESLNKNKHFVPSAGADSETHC
Procedure: as §1, §2, §3, §4
Uptake of the probe substrate in control cells provided background activity values for all data points. Incubation without TA or reference inhibitor (solvent only) provided 100% activity values. A reference inhibitor served as positive control for inhibition.
The amount of translocated probe substrate was determined for each well in cpm or RFU. Relative activities were calculated from the equation:
[formula] A: amount of translocated substrate in the presence of TA in transfected cells B: amount of translocated substrate in the presence of TA in control cells C: amount of translocated substrate in the presence of solvent in transfected cells D: amount of translocated substrate in the presence of solvent in control cells Calculation of Fold Accumulation Values
as §5

In the case of [O-][n+]1cccc(C(Cl)=NOCC(O)CN2CCCCC2)c1 (stereo not shown) [Arimoclomol, N-[2-hydroxy-3-(1-piperidinyl)-propoxy]-pyridine-1-oxide-3-carboximidoyl chloride], the “Inhibitor of the OCT2 transporter (in words)” value (human OCT2) is reported as “inhibitor”, the IC50 (human OCT2; OCT2-mediated metformin (10 μM) uptake, CHO cells) is reported as 10 µM and 9.72 µM and the Solubility ([1]; methanol) is reported as 0.4 g/100 mL. The Solubility ([1]; water) was 14 g/100 mL, the maximum tolerated dose ([2]; healthy human volunteers) was “no maximum tolerated dose has been reached” and the safety and tolerability ([2]; oral single ascending or repeated doses 50 to 800 mg, 261 subjects) was “safe and well-tolerated”. For the same compound, the serum creatinine levels ([2]; single- and multiple-dose Phase I studies) was “slight and reversible increases”, the maximum inhibition (OATP1B1; Table 2) was “NIO” and the maximum inhibition (OATP1B1; Table 5) was “NIO”. The “Influence on OATP1B1-mediated probe substrate accumulation (in words)” value (OATP1B1; applied concentrations) was “did not influence; also recorded: not an inhibitor”.
